According to patent publication US12390437B2, “Itaconic acid derivatives and uses thereof intreating an inflammatory disease or a disease associated with an undesirable immune response” (Sitryx Therapeutics Limited, priority 2019, dated 2025):

test system: IL-1β cytokine output from THP-1s; assay: THP-1 AlphaLISA IL-1β cytokine assay; format: cell-based, human; details: Homo sapiens, THP-1, PMA-differentiated THP-1 cells, LPS 24 hr then Nigericin 1 hour; read-out: IL-1β (IC50)
How it was run: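 Cells are differentiated with PMA over 72 h, switched to 1% FBS medium and treated with compound for 30 min before LPS stimulation for 24 h. Nigericin is added for a final hour, and secreted cytokine is measured by AlphaLISA, with IC50 fitted from percent inhibition.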

SMILES	IC50 [µM]
C=C(CC(=O)OCCCCCCCC)C(=O)OCCNS(C)(=O)=O [Example 53, 1-(2-(methylsulfonamido)ethyl) 4-octyl 2-methylenesuccinate]	9.3
C=C(CC(=O)OCCCCCCCC)C(=O)OC1CC(F)(F)C1 [Example 185, 1-(3,3-difluorocyclobutyl) 4-octyl 2-methylenesuccinate]	21.6
C=C(CC(=O)OCCCCCCCC)C(=O)O[C@@H]1CCOC1 [Example 24, (R)-4-octyl 1-(tetrahydrofuran-3-yl) 2-methylenesuccinate]	15
C=C(CC(=O)OC1CCCCC1)C(=O)OC(C)CS(C)(=O)=O (stereo not drawn) [Example 59, 4-cyclohexyl 1-(1-(methylsulfonyl)propan-2-yl) 2-methylenesuccinate]	13.3
C=C(CC(=O)OC1CCCCC1)C(=O)OCC(C)(C)C(=O)O [Example 117, 3-((4-(cyclohexyloxy)-2-methylene-4-oxobutanoyl)oxy)-2,2-dimethylpropanoic acid]	100
C=C(CC(=O)OCCCOCC)C(=O)OCC(=O)O [Example 114, 2-((4-(3-ethoxypropoxy)-2-methylene-4-oxobutanoyl)oxy)acetic acid]	100
C=C(CC(=O)O[C@H](C)CCCCCC)C(=O)OCCN1CCCC1=O [Example 72, (R)-4-(octan-2-yl) 1-(2-(2-oxopyrrolidin-1-yl)ethyl) 2-methylenesuccinate]	11.4
C=C(CC(=O)OC1CCCCC1)C(=O)OC1CCOCC1 [Example 64, 4-cyclohexyl 1-(tetrahydro-2H-pyran-4-yl) 2-methylenesuccinate]	10.2
C=C(CC(=O)OCCCCCC)C(=O)OCCC(=O)NS(C)(=O)=O [Example 120]	26.9
C=C(CC(=O)OCCCCCCCC)C(=O)OC(C)CC#N (stereo not drawn) [Example 27, 1-(1-cyanopropan-2-yl) 4-octyl 2-methylenesuccinate]	12.2
C=C(CC(=O)OCCCCCCCC)C(=O)OCC(=O)N1CCN(C)CC1 [Example 107, 1-(2-(4-methylpiperazin-1-yl)-2-oxoethyl) 4-octyl 2-methylenesuccinate]	10

Now those with a lower IC50, led by results:

IC50 [µM]	SMILES
8.5	C=C(CC(=O)OCCCCCCCC)C(=O)OCCC(=O)NC [Example 110, 1-(3-(methylamino)-3-oxopropyl) 4-octyl 2-methylenesuccinate]
7.9	C=C(CC(=O)O[C@H](C)CCCCCC)C(=O)OC(C)CS(C)(=O)=O (stereo partly drawn) [Example 56, 1-(1-(methylsulfonyl)propan-2-yl) 4-((R)-octan-2-yl) 2-methylenesuccinate]
7.3	C=C(CC(=O)OCCCCCCCC)C(=O)OCCN1CCN(C)CC1 [Example 51, 1-(2-(4-methylpiperazin-1-yl)ethyl) 4-octyl 2-methylenesuccinate]
6.1	C=C(CC(=O)OC1CCCCC1)C(=O)OCCS(C)(=O)=O [Example 61, 4-cyclohexyl 1-(2-(methylsulfonyl)ethyl) 2-methylenesuccinate]
6.1	C=C(CC(=O)OC1CCCCCCC1)C(=O)OC1CCOCC1 [Example 70, 4-cyclooctyl 1-(tetrahydro-2H-pyran-4-yl) 2-methylenesuccinate]
5.2	C=C(CC(=O)OCCCCCCCC)C(=O)OC1CCN(S(C)(=O)=O)CC1 [Example 28, 1-(1-(methylsulfonyl)piperidin-4-yl) 4-octyl 2-methylenesuccinate]
2.3	C=C(CC(=O)O[C@@H](C)CCCCCC)C(=O)OC1CN(C(C)=O)C1 [Example 66, (S)-1-(1-acetylazetidin-3-yl) 4-(octan-2-yl) 2-methylenesuccinate]

test system: IL-6 cytokine output from THP-1s; assay: THP-1 AlphaLISA IL-6 cytokine assay; format: cell-based, human; details: Homo sapiens; PMA-differentiated THP-1 cells, LPS 24 hr then Nigericin 1 hour
Description: Measuring Inhibitory Effects on IL-1β and IL-6 Cytokine Output from THP-1s
The cytokine inhibition profiles of compounds of formula (IW-1) were determined in a differentiated THP-1 cell assay. All assays were performed in RPMI-1640 growth medium (Gibco), supplemented with 10% fetal bovine serum (FBS; Gibco), 1% penicillin-streptomycin and 1% sodium pyruvate unless specified otherwise. The IL-1β and IL-6 cytokine inhibition assays were each run in a background of differentiated THP-1 cells as described below. All reagents described were from Sigma-Aldrich unless specified otherwise. Compounds were prepared as 10 mM DMSO stocks.
THP-1 cells were expanded as a suspension up to 80% confluence in appropriate growth medium. Cells were harvested, suspended, and treated with an appropriate concentration of phorbol 12-myristate 13-acetate (PMA) over a 72 hr period (37° C./5% CO2).
Following 72 hrs of THP-1 cell incubation, cellular medium was removed and replaced with fresh growth media containing 1% of FBS. Working concentrations of compounds were prepared separately in 10% FBS treated growth medium and pre-incubated with the cells for 30 minutes (37° C./5% CO2). Following the 30 minute compound pre-incubation, THP-1s were treated with an appropriate concentration of LPS and the THP-1s were subsequently incubated for a 24 hr period (37° C./5% CO2). An appropriate final concentration of Nigericin was then dispensed into the THP-1 plates and incubated for 1 hour (37° C./5% CO2) before THP-1 supernatants were harvested and collected in separate polypropylene 96-well holding plates.
Reagents from each of the IL-1β and IL-6 commercial kits (Perkin Elmer) were prepared and run according to the manufacturer's instructions. Subsequently, fluorescence signal detection in a microplate reader was measured (EnVision® Multilabel Reader, Perkin Elmer).
Percentage inhibition was calculated per cytokine by normalising the sample data to the high and low controls used within each plate (+/−LPS respectively). Percentage inhibition was then plotted against compound concentration and the 50% inhibitory concentration (IC50) was determined from the resultant concentration-response curve.

SMILES	IC50 [µM]
C=C(CC(=O)OCCCCCCCC)C(=O)OCCNS(C)(=O)=O [Example 53, 1-(2-(methylsulfonamido)ethyl) 4-octyl 2-methylenesuccinate]	5.4
C=C(CC(=O)OCCCCCCCC)C(=O)OC1CC(F)(F)C1 [Example 185, 1-(3,3-difluorocyclobutyl) 4-octyl 2-methylenesuccinate]	8.8
C=C(CC(=O)OCCCCCCCC)C(=O)O[C@@H]1CCOC1 [Example 24, (R)-4-octyl 1-(tetrahydrofuran-3-yl) 2-methylenesuccinate]	4.2
C=C(CC(=O)OC1CCCCC1)C(=O)OC(C)CS(C)(=O)=O (stereo not drawn) [Example 59, 4-cyclohexyl 1-(1-(methylsulfonyl)propan-2-yl) 2-methylenesuccinate]	8.8
C=C(CC(=O)OC1CCCCC1)C(=O)OCC(C)(C)C(=O)O [Example 117, 3-((4-(cyclohexyloxy)-2-methylene-4-oxobutanoyl)oxy)-2,2-dimethylpropanoic acid]	43.9
C=C(CC(=O)OCCCOCC)C(=O)OCC(=O)O [Example 114, 2-((4-(3-ethoxypropoxy)-2-methylene-4-oxobutanoyl)oxy)acetic acid]	56.2
C=C(CC(=O)O[C@H](C)CCCCCC)C(=O)OCCN1CCCC1=O [Example 72, (R)-4-(octan-2-yl) 1-(2-(2-oxopyrrolidin-1-yl)ethyl) 2-methylenesuccinate]	8.2
C=C(CC(=O)OC1CCCCC1)C(=O)OC1CCOCC1 [Example 64, 4-cyclohexyl 1-(tetrahydro-2H-pyran-4-yl) 2-methylenesuccinate]	12.6
C=C(CC(=O)OCCCCCC)C(=O)OCCC(=O)NS(C)(=O)=O [Example 120]	7.7
C=C(CC(=O)OCCCCCCCC)C(=O)OC(C)CC#N (stereo not drawn) [Example 27, 1-(1-cyanopropan-2-yl) 4-octyl 2-methylenesuccinate]	6.4
C=C(CC(=O)OCCCCCCCC)C(=O)OCC(=O)N1CCN(C)CC1 [Example 107, 1-(2-(4-methylpiperazin-1-yl)-2-oxoethyl) 4-octyl 2-methylenesuccinate]	2.7

Next, values leading:

IC50 [µM]	SMILES
4.4	C=C(CC(=O)OCCCCCCCC)C(=O)OCCC(=O)NC [Example 110, 1-(3-(methylamino)-3-oxopropyl) 4-octyl 2-methylenesuccinate]
3.5	C=C(CC(=O)O[C@H](C)CCCCCC)C(=O)OC(C)CS(C)(=O)=O (stereo partly drawn) [Example 56, 1-(1-(methylsulfonyl)propan-2-yl) 4-((R)-octan-2-yl) 2-methylenesuccinate]
4	C=C(CC(=O)OCCCCCCCC)C(=O)OCCN1CCN(C)CC1 [Example 51, 1-(2-(4-methylpiperazin-1-yl)ethyl) 4-octyl 2-methylenesuccinate]
5	C=C(CC(=O)OC1CCCCC1)C(=O)OCCS(C)(=O)=O [Example 61, 4-cyclohexyl 1-(2-(methylsulfonyl)ethyl) 2-methylenesuccinate]
9.4	C=C(CC(=O)OC1CCCCCCC1)C(=O)OC1CCOCC1 [Example 70, 4-cyclooctyl 1-(tetrahydro-2H-pyran-4-yl) 2-methylenesuccinate]
2.2	C=C(CC(=O)OCCCCCCCC)C(=O)OC1CCN(S(C)(=O)=O)CC1 [Example 28, 1-(1-(methylsulfonyl)piperidin-4-yl) 4-octyl 2-methylenesuccinate]
2.5	C=C(CC(=O)O[C@@H](C)CCCCCC)C(=O)OC1CN(C(C)=O)C1 [Example 66, (S)-1-(1-acetylazetidin-3-yl) 4-(octan-2-yl) 2-methylenesuccinate]
